According to PubChem BioAssay AID256 (DTP/NCI, 2004):
Several values for one entry are separate records, joined by “and”; a condition that tells them apart may be missing. Identical values can stand only once. Inconclusive results and toxic doses are left out. The calls were made as follows: active = survival T/C of 150% or more; inactive = T/C below 125% in these data.

System: CD2F1 mice, L1210 leukemia ip, survival T/C
Test: NCI In Vivo Anticancer Drug Screen. Data for tumor model L1210 Leukemia (intraperitoneal) in CD2F1 (CDF1) mice
Details: higher = longer survival
Procedure, shortened: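 Compound-dosed mice with transplantable tumor versus matched vehicle controls; endpoint ratio T/C reported.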

[1] = endpoint: mean survival time, dose: 25.0 mg/kg/injection, schedule: Q01DX009 (ip), vehicle: saline with Tween-80
[2] = endpoint: mean survival time, dose: 50.0 mg/kg/injection, schedule: Q01DX009 (ip), vehicle: saline with Tween-80
[3] = endpoint: mean survival time, dose: 100.0 mg/kg/injection, schedule: Q01DX009 (ip), vehicle: saline with Tween-80
[4] = endpoint: mean survival time, dose: 200.0 mg/kg/injection, schedule: Q01DX009 (ip), vehicle: saline with Tween-80
[5] = endpoint: mean survival time, dose: 100.0 mg/kg/injection, schedule: Q04DX003 (ip), vehicle: saline with Tween-80
[6] = endpoint: mean survival time, dose: 200.0 mg/kg/injection, schedule: Q04DX003 (ip), vehicle: saline with Tween-80
[7] = endpoint: mean survival time, dose: 400.0 mg/kg/injection, schedule: Q01DX009 (ip), vehicle: saline with Tween-80
[8] = endpoint: mean survival time, dose: 400.0 mg/kg/injection, schedule: Q04DX003 (ip), vehicle: saline with Tween-80
[9] = endpoint: mean survival time, dose: 100.0 mg/kg/injection, schedule: Q04DX002 (ip), vehicle: saline with Tween-80
[10] = endpoint: mean survival time, dose: 100.0 mg/kg/injection, schedule: Q01DX001 (ip), vehicle: saline with Tween-80
[11] = endpoint: mean survival time, dose: 200.0 mg/kg/injection, schedule: Q01DX001 (ip), vehicle: saline with Tween-80

Measured: T/C

CN1CCC(c2ccccc2)(c2ccccc2)OC1
inactive: [1] 106 % of control | [2] 98 % of control | [3] 110 % of control

CCC/C=C/CCOC(=N)C(Cl)(Cl)Cl
inactive: [2] 92 % of control | [3] 92 % of control | [4] 88 % of control

CSC(=S)N(C)N
inactive: [3] 104 % of control | [5] 102 % of control | [4] 103 % of control | [6] 100 % of control | [7] 104 % of control | [8] 102 % of control

CCOC(=O)c1c(OC)cc2n(c1=O)Cc1cc3ccccc3nc1-2
inactive: [1] 98 % of control | [2] 98 % of control | [3] 101 % of control | [5] 90 % of control

CC1(OO)CC(=O)OO1 (stereo not drawn)
inactive: endpoint: mean survival time, dose: 5.0 mg/kg/injection, schedule: Q01DX001 (ip), vehicle: saline 90 % of control | endpoint: mean survival time, dose: 10.0 mg/kg/injection, schedule: Q01DX001 (ip), vehicle: saline 95 % of control | endpoint: mean survival time, dose: 20.0 mg/kg/injection, schedule: Q01DX001 (ip), vehicle: saline 92 % of control

CC1=C(NNS(=O)(=O)c2ccc(C)cc2)CCCC1=O
inactive: endpoint: mean survival time, dose: 25.0 mg/kg/injection, schedule: Q04DX002 (ip), vehicle: saline with Tween-80 94 % of control | endpoint: mean survival time, dose: 50.0 mg/kg/injection, schedule: Q04DX002 (ip), vehicle: saline with Tween-80 97 % of control | [9] 91 % of control and 96 % of control

CC(NC(=O)C(C)(Br)C1CCCCC1)c1ccccc1 (stereo not drawn)
inactive: [10] 87 % of control | [11] 91 % of control

CC(C)=N/N=C(N)/C(N)=N/N=C(C)C
inactive: [9] 103 % of control | endpoint: mean survival time, dose: 200.0 mg/kg/injection, schedule: Q04DX002 (ip), vehicle: saline with Tween-80 106 % of control | endpoint: mean survival time, dose: 400.0 mg/kg/injection, schedule: Q04DX002 (ip), vehicle: saline with Tween-80 95 % of control

CC1CC(C)(C)N=C(C(Cc2ccccc2)Cc2ccccc2)O1 (stereo not drawn)
inactive: [10] 97 % of control | [11] 95 % of control

Cc1c(N=Nc2cc[n+]([O-])cc2)ccc(N(C)C)c1C
inactive: [5] 102 % of control | [6] 97 % of control

COC(=O)c1ccccc1SSc1ccccc1C(=O)OC
inactive: [3] 93 % of control | [4] 98 % of control | [7] 93 % of control

CCSC(=O)CC
inactive: [3] 93 % of control | [4] 98 % of control

Cc1ccc2c(ccc(/C=C/c3ccc(O)c4ncccc34)[n+]2C)c1
inactive: endpoint: mean survival time, dose: 12.5 mg/kg/injection, schedule: Q01DX009 (ip), vehicle: saline with Tween-80 117 % of control | [1] 122 % of control | [2] 105 % of control | endpoint: mean survival time, dose: 66.0 mg/kg/injection, schedule: Q04DX003 (ip), vehicle: saline with Tween-80 119 % of control | [5] 119 % of control | endpoint: mean survival time, dose: 150.0 mg/kg/injection, schedule: Q04DX003 (ip), vehicle: saline with Tween-80 119 % of control

CC(N)CC(C)N (stereo not drawn)
inactive: endpoint: mean survival time, dose: 100.0 mg/kg/injection, schedule: Q04DX002 (ip), vehicle: saline 105 % of control | endpoint: mean survival time, dose: 200.0 mg/kg/injection, schedule: Q04DX002 (ip), vehicle: saline 109 % of control

Cc1cc2nc(C(=C(c3nc4cc(C)c(C)cc4[nH]3)c3nc4cc(C)c(C)cc4[nH]3)c3nc4cc(C)c(C)cc4[nH]3)[nH]c2cc1C
inactive: [5] 97 % of control | [6] 94 % of control | [8] 89 % of control

CC1(C)OCC2OC3(CO)NP(=O)(N(CCCl)CCCl)OC3C2O1 (stereo not drawn)
inactive: endpoint: mean survival time, dose: 62.5 mg/kg/injection, schedule: Q01DX001 (ip), vehicle: distilled water + Tween-80 102 % of control | endpoint: mean survival time, dose: 125.0 mg/kg/injection, schedule: Q01DX001 (ip), vehicle: distilled water + Tween-80 101 % of control | endpoint: mean survival time, dose: 250.0 mg/kg/injection, schedule: Q01DX001 (ip), vehicle: distilled water + Tween-80 93 % of control

CCOC(=O)N/N=C/c1cc(Cl)cc(Cl)c1O
inactive: endpoint: mean survival time, dose: 50.0 mg/kg/injection, schedule: Q01DX001 (ip), vehicle: saline with Tween-80 111 % of control | [10] 98 % of control | [11] 90 % of control

O=C(CCN1C(=O)c2ccccc2C1=O)c1ccc(O)cc1
inactive: [5] 93 % of control | [6] 98 % of control | [8] 92 % of control

CCOC(=O)c1ccc2c(c1)Cc1cc([N+](=O)[O-])ccc1-2
inactive: endpoint: mean survival time, dose: 100.0 mg/kg/injection, schedule: Q01DX001 (ip), vehicle: carboxymethylcellulose (CMC) 98 % of control | endpoint: mean survival time, dose: 200.0 mg/kg/injection, schedule: Q01DX001 (ip), vehicle: carboxymethylcellulose (CMC) 95 % of control | endpoint: mean survival time, dose: 400.0 mg/kg/injection, schedule: Q01DX001 (ip), vehicle: carboxymethylcellulose (CMC) 95 % of control

O=C1C=C(NNc2ccccc2)CCC1
inactive: [2] 104 % of control | [3] 100 % of control

CCC(=N\N=C(N)N)/C(C)=N\N=C(N)N
inactive: endpoint: mean survival time, dose: 15.0 mg/kg/injection, schedule: Q01DX009 (ip), vehicle: saline 95 % of control | endpoint: mean survival time, dose: 30.0 mg/kg/injection, schedule: Q01DX009 (ip), vehicle: saline 91 % of control

CCOP(=O)(OCC)C(C(C)C)N(C)C (stereo not drawn)
inactive: [10] 103 % of control | [11] 101 % of control | endpoint: mean survival time, dose: 400.0 mg/kg/injection, schedule: Q01DX001 (ip), vehicle: saline with Tween-80 98 % of control

CCN(CC)[S+](C)(=O)/C=C(\[O-])Nc1ccccc1 (stereo not drawn)
inactive: endpoint: mean survival time, dose: 25.0 mg/kg/injection, schedule: Q01DX001 (ip), vehicle: other 103 % of control | endpoint: mean survival time, dose: 50.0 mg/kg/injection, schedule: Q01DX001 (ip), vehicle: other 94 % of control | endpoint: mean survival time, dose: 100.0 mg/kg/injection, schedule: Q01DX001 (ip), vehicle: other 90 % of control

NC(=S)N/N=C/c1cccnc1
inactive: endpoint: mean survival time, dose: 50.0 mg/kg/injection, schedule: Q01DX009 (ip), vehicle: saline 109 % of control | endpoint: mean survival time, dose: 100.0 mg/kg/injection, schedule: Q01DX009 (ip), vehicle: saline 101 % of control | endpoint: mean survival time, dose: 200.0 mg/kg/injection, schedule: Q01DX009 (ip), vehicle: saline 106 % of control

CCCN(CCC)S(=O)(=O)c1ccc(NC(=O)OC2CC(C)CCC2C(C)C)cc1 (stereo not drawn)
inactive: endpoint: mean survival time, dose: 100.0 mg/kg/injection, schedule: Q01DX001 (ip), vehicle: saline 105 % of control | endpoint: mean survival time, dose: 200.0 mg/kg/injection, schedule: Q01DX001 (ip), vehicle: saline 100 % of control | endpoint: mean survival time, dose: 400.0 mg/kg/injection, schedule: Q01DX001 (ip), vehicle: saline 95 % of control

COc1cc(NCCCCCCCNC(C)C)c2nccc(C)c2c1
inactive: endpoint: median survival time, dose: 3.12 mg/kg/injection, schedule: Q01DX009 (ip), vehicle: saline 98 % of control | endpoint: median survival time, dose: 6.25 mg/kg/injection, schedule: Q01DX009 (ip), vehicle: saline 102 % of control | endpoint: median survival time, dose: 12.5 mg/kg/injection, schedule: Q01DX009 (ip), vehicle: saline 97 % of control

O=P(c1ccccc1)(c1ccccc1)c1ccccc1 (tested in a mixture with another compound)
inactive: endpoint: mean survival time, dose: 12.5 mg/kg/injection, schedule: Q01DX009 (ip), vehicle: other 100 % of control | endpoint: mean survival time, dose: 25.0 mg/kg/injection, schedule: Q01DX009 (ip), vehicle: other 100 % of control | endpoint: mean survival time, dose: 50.0 mg/kg/injection, schedule: Q01DX009 (ip), vehicle: other 101 % of control | endpoint: mean survival time, dose: 100.0 mg/kg/injection, schedule: Q01DX009 (ip), vehicle: other 96 % of control | endpoint: mean survival time, dose: 200.0 mg/kg/injection, schedule: Q01DX009 (ip), vehicle: other 103 % of control

NC(C(=O)O)c1ccc(CBr)cc1 (stereo not drawn)
inactive: endpoint: median survival time, dose: 3.12 mg/kg/injection, schedule: Q01DX009 (ip), vehicle: saline with Tween-80 108 % of control | endpoint: median survival time, dose: 6.25 mg/kg/injection, schedule: Q01DX009 (ip), vehicle: saline with Tween-80 116 % of control and 100 % of control and 112 % of control | endpoint: median survival time, dose: 12.5 mg/kg/injection, schedule: Q01DX009 (ip), vehicle: saline with Tween-80 113 % of control and 121 % of control and 105 % of control | endpoint: median survival time, dose: 25.0 mg/kg/injection, schedule: Q01DX009 (ip), vehicle: saline with Tween-80 116 % of control and 103 % of control | endpoint: median survival time, dose: 50.0 mg/kg/injection, schedule: Q01DX009 (ip), vehicle: saline with Tween-80 121 % of control and 108 % of control
